Assay results taken from PubChem BioAssay AID248 (DTP/NCI, 2004).
Inconclusive results and toxic doses are left out. Rule as the data show it: active = T/C of 150% or more; inactive = T/C below 125%.

System: L1210 leukemia ip in BDF1 mice, survival T/C
Assay: NCI In Vivo Anticancer Drug Screen. Data for tumor model L1210 Leukemia (intraperitoneal) in B6D2F1 (BDF1) mice
Conditions: endpoint: mean survival time, higher = longer survival
Procedure, shortened: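 Tumor was transplanted into mice, which were then dosed with test compound or vehicle alone. Survival was recorded for each group, and the treated figure was expressed relative to the control figure.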

[1] = dose: 100.0 mg/kg/injection, schedule: Q01DX009 (ip), vehicle: Klucel (hydroxypropylcellulose) (HPC)
[2] = dose: 100.0 mg/kg/injection, schedule: Q04DX003 (ip), vehicle: Klucel (hydroxypropylcellulose) (HPC)
[3] = dose: 200.0 mg/kg/injection, schedule: Q04DX003 (ip), vehicle: Klucel (hydroxypropylcellulose) (HPC)
[4] = dose: 100.0 mg/kg/injection, schedule: Q04DX002 (ip), vehicle: saline with Tween-80
[5] = dose: 200.0 mg/kg/injection, schedule: Q04DX002 (ip), vehicle: saline with Tween-80
[6] = dose: 100.0 mg/kg/injection, schedule: Q04DX003 (ip), vehicle: saline
[7] = dose: 100.0 mg/kg/injection, schedule: Q01DX001 (ip), vehicle: saline
[8] = dose: 200.0 mg/kg/injection, schedule: Q01DX001 (ip), vehicle: saline
[9] = dose: 400.0 mg/kg/injection, schedule: Q01DX001 (ip), vehicle: saline
[10] = dose: 100.0 mg/kg/injection, schedule: Q04DX003 (ip), vehicle: saline with Tween-80
[11] = dose: 50.0 mg/kg/injection, schedule: Q01DX001 (ip), vehicle: saline
[12] = dose: 100.0 mg/kg/injection, schedule: Q04DX002 (ip), vehicle: Klucel (hydroxypropylcellulose) (HPC)
[13] = dose: 200.0 mg/kg/injection, schedule: Q04DX002 (ip), vehicle: Klucel (hydroxypropylcellulose) (HPC)
[14] = dose: 400.0 mg/kg/injection, schedule: Q04DX002 (ip), vehicle: Klucel (hydroxypropylcellulose) (HPC)
[15] = dose: 100.0 mg/kg/injection, schedule: Q01DX009 (ip), vehicle: saline
[16] = dose: 200.0 mg/kg/injection, schedule: Q01DX009 (ip), vehicle: saline
[17] = dose: 400.0 mg/kg/injection, schedule: Q01DX009 (ip), vehicle: saline
[18] = dose: 200.0 mg/kg/injection, schedule: Q01DX009 (ip), vehicle: Klucel (hydroxypropylcellulose) (HPC)
[19] = dose: 400.0 mg/kg/injection, schedule: Q01DX009 (ip), vehicle: Klucel (hydroxypropylcellulose) (HPC)

Measured: T/C

CC1c2ccccc2N(S(=O)(=O)c2ccccc2)C1C (centres undefined)
inactive: dose: 100.0 mg/kg/injection, schedule: Q01DX009 (ip), vehicle: gum acacia 108 % of control | dose: 100.0 mg/kg/injection, schedule: Q04DX003 (ip), vehicle: gum acacia 96 % of control | dose: 200.0 mg/kg/injection, schedule: Q01DX009 (ip), vehicle: gum acacia 104 % of control | dose: 200.0 mg/kg/injection, schedule: Q04DX003 (ip), vehicle: gum acacia 102 % of control | dose: 400.0 mg/kg/injection, schedule: Q01DX009 (ip), vehicle: gum acacia 93 % of control | dose: 400.0 mg/kg/injection, schedule: Q04DX003 (ip), vehicle: gum acacia 96 % of control

CCCCCCCCCCCC[n+]1ccc(C)cc1C
inactive: dose: 0.01 mg/kg/injection, schedule: Q01DX015 (ip), vehicle: saline 92 % of control | dose: 0.02 mg/kg/injection, schedule: Q01DX015 (ip), vehicle: saline 98 % of control | dose: 0.04 mg/kg/injection, schedule: Q01DX015 (ip), vehicle: saline 97 % of control | dose: 0.08 mg/kg/injection, schedule: Q01DX015 (ip), vehicle: saline 98 % of control | dose: 0.1 mg/kg/injection, schedule: Q01DX009 (ip), vehicle: saline 97 % of control | dose: 0.1 mg/kg/injection, schedule: Q04DX003 (ip), vehicle: saline 102 % of control | dose: 0.2 mg/kg/injection, schedule: Q01DX009 (ip), vehicle: saline 92 % of control | dose: 0.2 mg/kg/injection, schedule: Q04DX003 (ip), vehicle: saline 97 % of control | dose: 0.4 mg/kg/injection, schedule: Q01DX009 (ip), vehicle: saline 101 % of control | dose: 0.4 mg/kg/injection, schedule: Q04DX003 (ip), vehicle: saline 94 % of control | dose: 0.59 mg/kg/injection, schedule: Q01DX009 (ip), vehicle: saline 91 % of control

O=[N+]([O-])c1cc([As](=O)(O)O)ccc1Cl
inactive: dose: 50.0 mg/kg/injection, schedule: Q01DX009 (ip), vehicle: Klucel (hydroxypropylcellulose) (HPC) 97 % of control | [1] 97 % of control | [2] 100 % of control | [3] 104 % of control

Cc1ccc(CSc2ccc([N+](=O)[O-])cc2[N+](=O)[O-])cc1
inactive: dose: 100.0 mg/kg/injection, schedule: Q01DX001 (ip), vehicle: carboxymethylcellulose (CMC) 113 % of control | dose: 200.0 mg/kg/injection, schedule: Q01DX001 (ip), vehicle: carboxymethylcellulose (CMC) 98 % of control | dose: 400.0 mg/kg/injection, schedule: Q01DX001 (ip), vehicle: carboxymethylcellulose (CMC) 92 % of control

O=C1O/C(=C/c2ccccc2)C(O)=C1c1ccccc1
inactive: [4] 93 % of control | [5] 103 % of control

CC(=O)C(N=Nc1nn[nH]n1)C(C)=O
inactive: [6] 104 % of control | dose: 200.0 mg/kg/injection, schedule: Q04DX003 (ip), vehicle: saline 93 % of control | dose: 400.0 mg/kg/injection, schedule: Q04DX003 (ip), vehicle: saline 96 % of control

CCOc1cc2cc(C(=O)O)sc2cc1OCC
inactive: [7] 101 % of control | [8] 110 % of control | [9] 104 % of control

O=C(NCS(=O)(=O)O)OCc1ccccc1
inactive: dose: 100.0 mg/kg/injection, schedule: Q01DX001 (ip), vehicle: other 98 % of control | dose: 100.0 mg/kg/injection, schedule: Q04DX003 (ip), vehicle: other 96 % of control | dose: 200.0 mg/kg/injection, schedule: Q01DX001 (ip), vehicle: other 104 % of control | dose: 200.0 mg/kg/injection, schedule: Q04DX003 (ip), vehicle: other 102 % of control | dose: 400.0 mg/kg/injection, schedule: Q01DX001 (ip), vehicle: other 96 % of control | dose: 400.0 mg/kg/injection, schedule: Q04DX003 (ip), vehicle: other 96 % of control

O=C(Nc1cccc(S(=O)(=O)F)c1)c1ccc(COc2ccc([N+](=O)[O-])cc2Cl)cc1
inactive: dose: 100.0 mg/kg/injection, schedule: Q01DX009 (ip), vehicle: saline sonified 100 % of control | [10] 97 % of control | dose: 200.0 mg/kg/injection, schedule: Q01DX009 (ip), vehicle: saline sonified 100 % of control | dose: 200.0 mg/kg/injection, schedule: Q04DX003 (ip), vehicle: saline with Tween-80 100 % of control | dose: 400.0 mg/kg/injection, schedule: Q01DX009 (ip), vehicle: saline sonified 94 % of control | dose: 400.0 mg/kg/injection, schedule: Q04DX003 (ip), vehicle: saline with Tween-80 94 % of control

CN(C)C1C(=O)C(C(N)=O)=C(O)C2(O)C(=O)C3=C(O)c4c(O)cccc4C(C)(O)C3C(O)C12 (centres undefined)
inactive: dose: 19.5 mg/kg/injection, schedule: Q01DX Z (ip), vehicle: carboxymethylcellulose (CMC) 94 % of control | dose: 39.0 mg/kg/injection, schedule: Q01DX Z (ip), vehicle: carboxymethylcellulose (CMC) 91 % of control | [11] 93 % of control | dose: 50.0 mg/kg/injection, schedule: Q01DX Z (ip), vehicle: water 117 % of control | dose: 78.0 mg/kg/injection, schedule: Q01DX Z (ip), vehicle: carboxymethylcellulose (CMC) 89 % of control | [7] 90 % of control | dose: 100.0 mg/kg/injection, schedule: Q01DX Z (ip), vehicle: water 119 % of control | dose: 156.0 mg/kg/injection, schedule: Q01DX Z (ip), vehicle: carboxymethylcellulose (CMC) 98 % of control | [8] 95 % of control | [9] 101 % of control

CC(=O)Nc1ccc2c(ccc3ccc4ccccc4c32)c1
inactive: [12] 102 % of control | [13] 105 % of control | [14] 105 % of control

COc1cc2c(cc1OC)C13CCN4CC5=CCOC6CCN2C1C6C5CC43 (centres undefined)
inactive: dose: 25.0 mg/kg/injection, schedule: Q04DX003 (ip), vehicle: saline 101 % of control | dose: 50.0 mg/kg/injection, schedule: Q04DX003 (ip), vehicle: saline 109 % of control | [10] 86 % of control | [6] 106 % of control

O=[N+]([O-])c1ccc(N/N=C\c2c(Cl)c(Cl)c(/C=N/Nc3ccc([N+](=O)[O-])cc3)c(Cl)c2Cl)cc1
inactive: [11] 91 % of control | [7] 91 % of control | [8] 94 % of control | [9] 94 % of control

CCOC1OC(=O)c2cccc3ccc4cccc1c4c23 (centres undefined)
inactive: [12] 90 % of control | [13] 86 % of control | [14] 93 % of control

CCOC(CCc1c(C)nc[nH]c1=O)OCC
inactive: [15] 90 % of control | [16] 98 % of control | [17] 95 % of control

O=C(Nc1cccc(C(F)(F)F)c1)c1ccco1
inactive: [1] 93 % of control | [12] 106 % of control | [18] 96 % of control | [13] 95 % of control | [19] 109 % of control | [14] 104 % of control

CCOCCCSP(SCCCOCC)SCCCOCC
inactive: [15] 101 % of control | [16] 102 % of control | [17] 104 % of control

CC(=O)ONc1nc(C)c(CCC2OCCO2)c(=O)[nH]1
inactive: [1] 95 % of control | [2] 105 % of control | [18] 102 % of control | [3] 105 % of control | [19] 95 % of control | dose: 400.0 mg/kg/injection, schedule: Q04DX003 (ip), vehicle: Klucel (hydroxypropylcellulose) (HPC) 98 % of control

O=C(COc1cccc(Cl)c1)Nc1cccc(CN2C(=O)c3ccccc3C2=O)c1
inactive: dose: 50.0 mg/kg/injection, schedule: Q04DX003 (ip), vehicle: Klucel (hydroxypropylcellulose) (HPC) 96 % of control | [2] 98 % of control | [3] 95 % of control

O=S(=O)(O)Nc1cccc(Cl)c1
inactive: [4] 100 % of control | [5] 111 % of control | dose: 400.0 mg/kg/injection, schedule: Q04DX002 (ip), vehicle: saline with Tween-80 88 % of control

COc1cc(/C=C2\C(O)C3CCN2CC3)cc(OC)c1OC (centres undefined)
inactive: dose: 100.0 mg/kg/injection, schedule: Q04DX002 (ip), vehicle: saline 115 % of control | dose: 200.0 mg/kg/injection, schedule: Q04DX002 (ip), vehicle: saline 118 % of control
